Data published in article PMC7354438 (Viruses, 2020).
Structures can show the parent of a compound that is named as a salt.

Test system: hCoV-19/Norway/Trondheim-E9/2020
Assay: Drug test: viability of SARS-CoV-2-infected Vero-E6 cells (CellTiter-Glo)
Type: cell-based
Set-up: AUC: unit not given beside the values
Conditions: 72 h
[1] = area under the dose-response curve of viability of virus-infected Vero-E6 cells, moi 0.1, 7 concentrations, decimal comma

CNC(=C[N+](=O)[O-])NCCSCc1ccc(CN(C)C)o1 [Ranitidine]
AUC [1]: 94,08

C[C@@H]1O[C@@H](O[C@H]2C[C@@H](O)[C@]3(CO)[C@H]4[C@H](O)C[C@]5(C)[C@@H](C6=CC(=O)OC6)CC[C@]5(O)[C@@H]4CC[C@]3(O)C2)[C@H](O)[C@H](O)[C@H]1O [Ouabain octahydrate]
AUC: 41,93

CNCCC(Oc1ccc(C(F)(F)F)cc1)c1ccccc1 (stereo not shown) [Fluoxetine]
AUC [1]: 104,37

CCC(C)(C)C(=O)O[C@H]1C[C@@H](C)C=C2C=C[C@H](C)[C@H](CC[C@@H]3C[C@@H](O)CC(=O)O3)[C@H]21 [Simvastatin]
AUC [1]: 163,03

NC(=O)c1ncn([C@@H]2O[C@H](CO)[C@@H](O)[C@H]2O)n1 [Ribavirin]
AUC [1]: 134,26

Cc1cccc(C)c1OCC(=O)N[C@@H](Cc1ccccc1)[C@@H](O)C[C@H](Cc1ccccc1)NC(=O)[C@H](C(C)C)N1CCCNC1=O [Lopinavir]
AUC [1]: 157,36

CN(C)CCCN1c2ccccc2Sc2ccc(Cl)cc21 [Chlorpromazine hydrochloride]
AUC [1]: 86,52

CN1[C@@H]2CC[C@H]1C[C@@H](OC(c1ccccc1)c1ccccc1)C2 [Benzatropine]
AUC [1]: 208,11

CCCCCCCCCCNCCN[C@@]1(C)C[C@H](O[C@H]2[C@H](Oc3c4cc5cc3Oc3ccc(cc3Cl)[C@@H](O)[C@@H](NC(=O)[C@@H](CC(C)C)NC)C(=O)N[C@@H](CC(N)=O)C(=O)N[C@H]5C(=O)N[C@H]3C(=O)N[C@H](C(=O)N[C@H](C(=O)O)c5cc(O)c(CNCP(=O)(O)O)c(O)c5-c5cc3ccc5O)[C@H](O)c3ccc(c(Cl)c3)O4)O[C@H](CO)[C@@H](O)[C@@H]2O)O[C@@H](C)[C@H]1O [Telavancin]
AUC: 139,65

N=C(N)NC(=O)c1nc(Cl)c(N)nc1N [Amiloride (EIPA)]
AUC [1]: 182,56

CC(C)COCC(CN(Cc1ccccc1)c1ccccc1)N1CCCC1 (stereo not shown) [Bepridil]
AUC [1]: 285,95

O=c1[nH]c(=O)n([C@H]2C[C@H](O)[C@@H](CO)O2)cc1C(F)(F)F [Trifluridine]
AUC [1]: 107,17

Doxycycline hyclate
AUC: 143,99

CC[C@@]1([C@@H]2O[C@@H]([C@H]3O[C@@](O)(CO)[C@H](C)C[C@@H]3C)C[C@@H]2C)CC[C@H]([C@]2(C)CC[C@]3(C[C@H](O)[C@@H](C)[C@@H]([C@@H](C)[C@@H](OC)[C@H](C)C(=O)O)O3)O2)O1 [Monensin]
AUC: 254,31

CC(C)[C@H](N)C(=O)OCCOCn1cnc2c(=O)[nH]c(N)nc21 [Valaciclovir]
AUC [1]: 134,61

CC(=O)N[C@@H](CS)C(=O)O [Acetylcysteine]
AUC [1]: 43,47

Nc1ccn(C[C@@H](CO)OCP(=O)(O)O)c(=O)n1 [Cidofovir]
AUC [1]: 144,69

O=C(O)P(=O)(O)O [Foscarnet]
AUC [1]: 127,26

CC/C(=C(\c1ccccc1)c1ccc(OCCN(C)C)cc1)c1ccccc1 [Tamoxifen]
AUC [1]: 54,67

COc1ccc([C@@H]2Sc3ccccc3N(CCN(C)C)C(=O)[C@@H]2OC(C)=O)cc1 [Diltiazem]
AUC [1]: 99,61

NC(=O)c1nc(F)c[nH]c1=O [Favipiravir (T-705), Favipiravir]
AUC [1]: 136,64

COc1ccc(C[C@H]2NC[C@H](O)[C@H]2OC(C)=O)cc1 [Anisomycin]
AUC: 169,33

CO[C@@H]1[C@@H](OC(N)=O)[C@@H](O)[C@H](Oc2ccc3c(O)c(NC(=O)c4ccc(O)c(CC=C(C)C)c4)c(=O)oc3c2C)OC1(C)C [Novobiocin]
AUC [1]: 100,73

C#Cc1cccc(Nc2ncnc3cc(OCCOC)c(OCCOC)cc23)c1 [Erlotinib]
AUC [1]: 103,46

Pentosan polysulfate
AUC: 123,06

COc1ccc(CC(C)NCC(O)c2ccc(O)c(NC=O)c2)cc1 (stereo not shown) [Formoterol]
AUC: 203,77

CN(C)C(=O)COC(=O)Cc1ccc(OC(=O)c2ccc(NC(=N)N)cc2)cc1 [Camostat]
AUC [1]: 88,41

Cc1oncc1C(=O)Nc1ccc(C(F)(F)F)cc1 [Leflunomide]
AUC [1]: 47,95
